From patent US20130012389A1, “Substituted Pyridazines Having Herbicidal Action” (BASF SE, priority 2010, published 2013)

Key:
AMARE = test: greenhouse experiment, post-emergence treatment, herbicidal activity against AMARE; type: in vivo, Amaranthus retroflexus; details: application rate 0.5 kg/ha, post-emergence method; scale from 0 to 100
Excerpt: (§1) The seeds of the test plants were sown separately for each species. For the post-emergence treatment, the test plants were first grown to a height of 3 to 15 cm, depending on the plant habit, and only then treated with the active ingredients which had been suspended or emulsified in water. For this purpose, the test plants were either sown directly and grown in the same containers, or they were first grown separately as seedlings and transplanted into the test containers a few days prior to treatment. Depending on the species, the plants were kept at 10-25° C. or 20-35° C. The test period extended over 2 to 4 weeks. During this time, the plants were tended, and their response to the individual treatments was evaluated. Evaluation was carried out using a scale from 0 to 100. 100 means no emergence of the plants, or complete destruction of at least the aerial moieties, and 0 means no damage, or normal course of growth. A good herbicidal activity is given at values of at least 70 and a very good herbicidal activity is given at values of at least 85. The plants used in the greenhouse experiments belonged to the following species: [table]

CHEAL = test: greenhouse experiment, post-emergence treatment, herbicidal activity against CHEAL; type: in vivo, Chenopodium album; details: application rate 0.5 kg/ha, post-emergence method; scale from 0 to 100
Excerpt: as §1

`O=c1oc2nccnc2c(O)c1-c1cc(Cl)cc(N2CCOCC2)c1C(F)(F)F` [1-4, 7-[5-chloro-3-morpholino-2-(trifluoromethyl)phenyl]-8-hydroxy-pyrano[2,3-b]pyrazin-6-one] was tested, and the “herbicidal activity against AMARE” value (AMARE) was “very good herbicidal activity (a very good herbicidal activity is given at values of at least 85)” and the “herbicidal activity against CHEAL” value (CHEAL) was “very good herbicidal activity (a very good herbicidal activity is given at values of at least 85)”.
